# System: HCI-001 (organoid from a triple-negative breast cancer xenograft)
# Test: CTG-3D luminescence at 96 h relative to day-0 seeding control (ratio to day 0); higher = more growth / less cytotoxicity; PDxO 3D drug screen, 96 h, CTG-3D normalised to day-0 seeding control.
# Settings: 10 µM; days in culture: 269
row,Structure (SMILES),CTG-3D luminescence at 96 h
1,COc1cc2c(Oc3ccc4[nH]c(C)cc4c3F)ncnc2cc1OCCCN1CCCC1 [cediranib],0.00899
2,CC(C)n1nc(-c2ccc3oc(N)nc3c2)c2c(N)ncnc21 [sapanisertib],0.643
3,Cc1cc(Nc2ncnc3ccc(NC4=NC(C)(C)CO4)cc23)ccc1Oc1ccn2ncnc2c1 [tucatinib],1.67
4,C[C@H](NC(=O)CCC(F)(F)F)C(=O)N[C@@H]1C(=O)N(CCO)c2ncccc2-c2ccccc21 [crenigacestat],2.1
5,C[C@]12CC[C@@H]3c4ccc(O)cc4C[C@@H](CCCCCCCCC[S+]([O-])CCCC(F)(F)C(F)(F)F)[C@H]3[C@@H]1CC[C@@H]2O (some centres not stated) [fulvestrant],1.7
6,O=C(c1ccc(F)c(F)c1Nc1ccc(I)cc1F)N1CC(O)([C@@H]2CCCCN2)C1 [cobimetinib],1.83
7,O=C(/C=C/c1cccnc1)NCCCCC1CCN(C(=O)c2ccccc2)CC1 [FK866],0.0578
8,CS(=O)(=O)c1ccc(C(=O)Nc2ccc(Cl)c(-c3ccccn3)c2)c(Cl)c1 [vismodegib],1.83
9,C=CCn1c(=O)c2cnc(Nc3ccc(N4CCN(C)CC4)cc3)nc2n1-c1cccc(C(C)(C)O)n1 [adavosertib],0.254

# Same assay, conditions: 10 µM; days in culture: 327
row,Structure (SMILES),CTG-3D luminescence at 96 h
1,COc1cc2c(Oc3ccc4[nH]c(C)cc4c3F)ncnc2cc1OCCCN1CCCC1 [cediranib],0.433
2,CC(C)n1nc(-c2ccc3oc(N)nc3c2)c2c(N)ncnc21 [sapanisertib],0.319
3,Cc1cc(Nc2ncnc3ccc(NC4=NC(C)(C)CO4)cc23)ccc1Oc1ccn2ncnc2c1 [tucatinib],1.16
4,C[C@H](NC(=O)CCC(F)(F)F)C(=O)N[C@@H]1C(=O)N(CCO)c2ncccc2-c2ccccc21 [crenigacestat],1.06
5,C[C@]12CC[C@@H]3c4ccc(O)cc4C[C@@H](CCCCCCCCC[S+]([O-])CCCC(F)(F)C(F)(F)F)[C@H]3[C@@H]1CC[C@@H]2O (some centres not stated) [fulvestrant],1.23
6,O=C(c1ccc(F)c(F)c1Nc1ccc(I)cc1F)N1CC(O)([C@@H]2CCCCN2)C1 [cobimetinib],1.04
7,O=C(/C=C/c1cccnc1)NCCCCC1CCN(C(=O)c2ccccc2)CC1 [FK866],0.0548
8,CS(=O)(=O)c1ccc(C(=O)Nc2ccc(Cl)c(-c3ccccn3)c2)c(Cl)c1 [vismodegib],1.2
9,C=CCn1c(=O)c2cnc(Nc3ccc(N4CCN(C)CC4)cc3)nc2n1-c1cccc(C(C)(C)O)n1 [adavosertib],0.193

# Same assay, conditions: 10 µM; days in culture: 346
row,Structure (SMILES),CTG-3D luminescence at 96 h
1,COc1cc2c(Oc3ccc4[nH]c(C)cc4c3F)ncnc2cc1OCCCN1CCCC1 [cediranib],0.639
2,CC(C)n1nc(-c2ccc3oc(N)nc3c2)c2c(N)ncnc21 [sapanisertib],0.315
3,Cc1cc(Nc2ncnc3ccc(NC4=NC(C)(C)CO4)cc23)ccc1Oc1ccn2ncnc2c1 [tucatinib],1.25
4,C[C@H](NC(=O)CCC(F)(F)F)C(=O)N[C@@H]1C(=O)N(CCO)c2ncccc2-c2ccccc21 [crenigacestat],1.35
5,C[C@]12CC[C@@H]3c4ccc(O)cc4C[C@@H](CCCCCCCCC[S+]([O-])CCCC(F)(F)C(F)(F)F)[C@H]3[C@@H]1CC[C@@H]2O (some centres not stated) [fulvestrant],1.16
6,O=C(c1ccc(F)c(F)c1Nc1ccc(I)cc1F)N1CC(O)([C@@H]2CCCCN2)C1 [cobimetinib],1.22
7,O=C(/C=C/c1cccnc1)NCCCCC1CCN(C(=O)c2ccccc2)CC1 [FK866],0.0541
8,CS(=O)(=O)c1ccc(C(=O)Nc2ccc(Cl)c(-c3ccccn3)c2)c(Cl)c1 [vismodegib],1.65
9,C=CCn1c(=O)c2cnc(Nc3ccc(N4CCN(C)CC4)cc3)nc2n1-c1cccc(C(C)(C)O)n1 [adavosertib],0.163

# Same assay, conditions: 10 µM; days in culture: 364
row,Structure (SMILES),CTG-3D luminescence at 96 h
1,COc1cc2c(Oc3ccc4[nH]c(C)cc4c3F)ncnc2cc1OCCCN1CCCC1 [cediranib],0.264
2,CC(C)n1nc(-c2ccc3oc(N)nc3c2)c2c(N)ncnc21 [sapanisertib],0.318
3,Cc1cc(Nc2ncnc3ccc(NC4=NC(C)(C)CO4)cc23)ccc1Oc1ccn2ncnc2c1 [tucatinib],1.28
4,C[C@H](NC(=O)CCC(F)(F)F)C(=O)N[C@@H]1C(=O)N(CCO)c2ncccc2-c2ccccc21 [crenigacestat],1.27
5,C[C@]12CC[C@@H]3c4ccc(O)cc4C[C@@H](CCCCCCCCC[S+]([O-])CCCC(F)(F)C(F)(F)F)[C@H]3[C@@H]1CC[C@@H]2O (some centres not stated) [fulvestrant],1.28
6,O=C(c1ccc(F)c(F)c1Nc1ccc(I)cc1F)N1CC(O)([C@@H]2CCCCN2)C1 [cobimetinib],0.905
7,O=C(/C=C/c1cccnc1)NCCCCC1CCN(C(=O)c2ccccc2)CC1 [FK866],0.0476
8,CS(=O)(=O)c1ccc(C(=O)Nc2ccc(Cl)c(-c3ccccn3)c2)c(Cl)c1 [vismodegib],1.71
9,C=CCn1c(=O)c2cnc(Nc3ccc(N4CCN(C)CC4)cc3)nc2n1-c1cccc(C(C)(C)O)n1 [adavosertib],0.13

# Same assay, conditions: 100 µM; days in culture: 240
row,Structure (SMILES),CTG-3D luminescence at 96 h
1,COc1cc2c(Oc3ccc4[nH]c(C)cc4c3F)ncnc2cc1OCCCN1CCCC1 [cediranib],0.00478
2,CC(C)n1nc(-c2ccc3oc(N)nc3c2)c2c(N)ncnc21 [sapanisertib],0.187
3,Cc1cc(Nc2ncnc3ccc(NC4=NC(C)(C)CO4)cc23)ccc1Oc1ccn2ncnc2c1 [tucatinib],0.0264
4,C[C@H](NC(=O)CCC(F)(F)F)C(=O)N[C@@H]1C(=O)N(CCO)c2ncccc2-c2ccccc21 [crenigacestat],1.45
5,C[C@]12CC[C@@H]3c4ccc(O)cc4C[C@@H](CCCCCCCCC[S+]([O-])CCCC(F)(F)C(F)(F)F)[C@H]3[C@@H]1CC[C@@H]2O (some centres not stated) [fulvestrant],1.55
6,O=C(c1ccc(F)c(F)c1Nc1ccc(I)cc1F)N1CC(O)([C@@H]2CCCCN2)C1 [cobimetinib],0.00168
7,O=C(/C=C/c1cccnc1)NCCCCC1CCN(C(=O)c2ccccc2)CC1 [FK866],0.134
8,CS(=O)(=O)c1ccc(C(=O)Nc2ccc(Cl)c(-c3ccccn3)c2)c(Cl)c1 [vismodegib],0.836
9,C=CCn1c(=O)c2cnc(Nc3ccc(N4CCN(C)CC4)cc3)nc2n1-c1cccc(C(C)(C)O)n1 [adavosertib],0.152

# Same assay, conditions: 100 µM; days in culture: 260
row,Structure (SMILES),CTG-3D luminescence at 96 h
1,COc1cc2c(Oc3ccc4[nH]c(C)cc4c3F)ncnc2cc1OCCCN1CCCC1 [cediranib],0.00103
2,CC(C)n1nc(-c2ccc3oc(N)nc3c2)c2c(N)ncnc21 [sapanisertib],0.21
3,Cc1cc(Nc2ncnc3ccc(NC4=NC(C)(C)CO4)cc23)ccc1Oc1ccn2ncnc2c1 [tucatinib],0.206
4,C[C@H](NC(=O)CCC(F)(F)F)C(=O)N[C@@H]1C(=O)N(CCO)c2ncccc2-c2ccccc21 [crenigacestat],1.12
5,C[C@]12CC[C@@H]3c4ccc(O)cc4C[C@@H](CCCCCCCCC[S+]([O-])CCCC(F)(F)C(F)(F)F)[C@H]3[C@@H]1CC[C@@H]2O (some centres not stated) [fulvestrant],1.1
6,O=C(c1ccc(F)c(F)c1Nc1ccc(I)cc1F)N1CC(O)([C@@H]2CCCCN2)C1 [cobimetinib],0.00186
7,O=C(/C=C/c1cccnc1)NCCCCC1CCN(C(=O)c2ccccc2)CC1 [FK866],0.125
8,CS(=O)(=O)c1ccc(C(=O)Nc2ccc(Cl)c(-c3ccccn3)c2)c(Cl)c1 [vismodegib],0.909
9,C=CCn1c(=O)c2cnc(Nc3ccc(N4CCN(C)CC4)cc3)nc2n1-c1cccc(C(C)(C)O)n1 [adavosertib],0.15

# Same assay, conditions: 100 µM; days in culture: 269
row,Structure (SMILES),CTG-3D luminescence at 96 h
1,COc1cc2c(Oc3ccc4[nH]c(C)cc4c3F)ncnc2cc1OCCCN1CCCC1 [cediranib],-0.0128
2,CC(C)n1nc(-c2ccc3oc(N)nc3c2)c2c(N)ncnc21 [sapanisertib],0.22
3,Cc1cc(Nc2ncnc3ccc(NC4=NC(C)(C)CO4)cc23)ccc1Oc1ccn2ncnc2c1 [tucatinib],0.0618
4,C[C@H](NC(=O)CCC(F)(F)F)C(=O)N[C@@H]1C(=O)N(CCO)c2ncccc2-c2ccccc21 [crenigacestat],2
5,C[C@]12CC[C@@H]3c4ccc(O)cc4C[C@@H](CCCCCCCCC[S+]([O-])CCCC(F)(F)C(F)(F)F)[C@H]3[C@@H]1CC[C@@H]2O (some centres not stated) [fulvestrant],1.69
6,O=C(c1ccc(F)c(F)c1Nc1ccc(I)cc1F)N1CC(O)([C@@H]2CCCCN2)C1 [cobimetinib],-0.00203
7,O=C(/C=C/c1cccnc1)NCCCCC1CCN(C(=O)c2ccccc2)CC1 [FK866],0.0645
8,CS(=O)(=O)c1ccc(C(=O)Nc2ccc(Cl)c(-c3ccccn3)c2)c(Cl)c1 [vismodegib],0.861
9,C=CCn1c(=O)c2cnc(Nc3ccc(N4CCN(C)CC4)cc3)nc2n1-c1cccc(C(C)(C)O)n1 [adavosertib],0.087

# Same assay, conditions: 100 µM; days in culture: 327
row,Structure (SMILES),CTG-3D luminescence at 96 h
1,COc1cc2c(Oc3ccc4[nH]c(C)cc4c3F)ncnc2cc1OCCCN1CCCC1 [cediranib],0.00365
2,CC(C)n1nc(-c2ccc3oc(N)nc3c2)c2c(N)ncnc21 [sapanisertib],0.111
3,Cc1cc(Nc2ncnc3ccc(NC4=NC(C)(C)CO4)cc23)ccc1Oc1ccn2ncnc2c1 [tucatinib],0.0356
4,C[C@H](NC(=O)CCC(F)(F)F)C(=O)N[C@@H]1C(=O)N(CCO)c2ncccc2-c2ccccc21 [crenigacestat],1.64
5,C[C@]12CC[C@@H]3c4ccc(O)cc4C[C@@H](CCCCCCCCC[S+]([O-])CCCC(F)(F)C(F)(F)F)[C@H]3[C@@H]1CC[C@@H]2O (some centres not stated) [fulvestrant],1.65
6,O=C(c1ccc(F)c(F)c1Nc1ccc(I)cc1F)N1CC(O)([C@@H]2CCCCN2)C1 [cobimetinib],0.00317
7,O=C(/C=C/c1cccnc1)NCCCCC1CCN(C(=O)c2ccccc2)CC1 [FK866],0.0869
8,CS(=O)(=O)c1ccc(C(=O)Nc2ccc(Cl)c(-c3ccccn3)c2)c(Cl)c1 [vismodegib],1.19
9,C=CCn1c(=O)c2cnc(Nc3ccc(N4CCN(C)CC4)cc3)nc2n1-c1cccc(C(C)(C)O)n1 [adavosertib],0.182
